The target in experiment [1] is Human BTK enzyme, wild-type (Homo sapiens (Human), UniProt Q06187). The experiment is described as follows: BTK Screening: Btk kinase activity, electrophoretic mobility shift assay (MSA). To be noted: 0.5 nM BTK enzyme, 50 μM ATP, 15 minutes pre-incubation, 3 hours at 25° C. In kind it is biochemical. The method, then: Btk kinase activity was measured in vitro using an electrophoretic mobility shift assay (MSA). The ability of Btk to phosphorylate a fluorescent peptide substrate (FAM-GEEPLYWSFPAKKK-NH2) was measured. The kinase reactions were assembled in a total volume of 25 μL per well in 384 well plates. The following was added to each well: compound buffer (or control); enzyme buffer; and substrate buffer, as further described below.
Specifically the following was added: (1) compound buffer or control: 5μL of 5× compound buffer [(5× compound buffer comprised of: 1× Master Buffer, X μM test compound in 5% dimethyl sulfoxide; (2× Master Buffer comprised of 200 mM HEPES, pH7.5, 0.2% BSA, and 0.02% Triton X-100)]; and (2) enzyme buffer: 10 μL of 2.5× enzyme buffer (1× Master Buffer, 12.5 mM MgCl2, 2.5 mM DTT, 25 μM sodium orthovanadate, 25 μM beta-glycerophosphate, and 1.25 nM BTK enzyme). Human BTK enzyme Nanosyn-293HEK, wild-type, available from Nanosyn, Santa Clara, CA). Enzyme and compound were pre-incubated for 15 minutes. Additionally, the following was added: (3) substrate buffer: 10 μL of 2.5× substrate buffer (1× Master Buffer, […], and 2.5 μM of the peptide substrate FAM). Each plate was incubated at 25° C. for 3 hours. The reaction was terminated by adding to each well: 45 μL of 1.55× stop buffer (1× Master Buffer and 31 mM EDTA). The final reaction mixture was as follows: 100 mM HEPES, pH7.5; 0.1% BSA; 0.01% Triton X-100; 1 mM DTT; 5 mM MgCl2; 10 μM sodium orthovanadate; 10 μM beta-glycerophosphate; 50 μM ATP; 1% dimethyl sulfoxide (from compound); 1μM fluorescent peptide substrate and 0.5 nM BTK- enzyme. The terminated reactions were analyzed using a 12 channel LABCHIP® 3000 microfluidic detection instrument (available from Caliper Life Sciences, Waltham, MA). […] As substrate and product peptides were separated, two peaks of fluorescence were observed. Change in the relative fluorescence intensity of the substrate and product peaks was the parameter measured, reflecting enzyme activity. In the presence of an active compound, the ratio between product and substrate was altered. The signal of the product decreased, while the signal of the substrate increased. Capillary electrophoregrams (RDA acquisition files) were analyzed using HTS Well Analyzer software (available from Caliper Life Sciences, Waltham, MA).
Activity in each sample was determined as the product to sum ratio (PSR): P/(S+P), where P was the peak height of the product peptide and S was the peak height of the substrate peptide. For each compound, enzyme activity was measured at various concentrations (12 concentrations of compound spaced by 3× dilution intervals). Negative control samples (0% inhibition in the absence of an active compound) and positive control samples (100% inhibition, in the presence of 20 mM EDTA) were assembled in replicates of four and were used to calculate % inhibition values for each active compound at each concentration. Percent inhibition (Pinh) was determined using following equation: Pinh=(PSR0%−PSRinh)/(PSR0%−PSR100%)*100, where PSRinh was the product sum ratio in the presence of inhibitor, PSR0% was the average product sum ratio in the absence of active compound and PSR100% was the average product sum ratio in 100%-inhibition control samples.
The IC50 values of active compounds were determined by 4 parameter sigmoidal dose response model fitting of the inhibition curves (Pinh versus inhibitor concentration) using XLfit® 4 software (IDBS, Boston, MA). The IC50 values are reported in Table 2 in the BTK IC50 (nM) column.

For experiment [2], the target named is His-tagged Cereblon/DDB1 complex (Homo sapiens (Human), UniProt Q96SW2). The experiment is described as follows: Cereblon Binding Assay (AlphaLISA Human Cereblon Binding Kit, competition). The settings on record: 10 μM top dose, biotin-labeled ligand competition; read-out: CRBN IC50. The procedure: Cereblon binding was measured in vitro using an AlphaLISA® Human Cereblon Binding Kit (PerkinElmer, Waltham, MA) according to the manufacturer's protocol (“Alpha” refers to Amplified Luminescent Proximity Homogeneous Assay). In this assay, donor beads and acceptor beads come into proximity through ligand binding to CRBN protein. Excitation of the donor beads provokes the release of singlet oxygen that triggers a cascade of energy transfer reactions to the acceptor beads, resulting in a sharp peak in light emission at 615 nm.
Specifically, nickel chelate acceptor beads (PerkinElmer AL108M) were used to capture a 6XHIS-tagged CRBN protein, and streptavidin-coated donor beads (PerkinElmer 6760002) were used to capture 50 nM biotinylated ligand. Each well included the following: sample or control; HIS-tagged CRBN protein; biotinylated ligand; nickel chelate acceptor beads; and streptavidin donor beads.
Competition Assay: Test compounds in 100% dimethyl sulfoxide were plated onto white, low volume 384 well plates (PerkinElmer Proxiplate 384 plus # 6008289) using an Labcyte Echo acoustic dispenser, in an 11-point dose curve and 3-fold dilution scheme. […] Plates were incubated for 30 minutes at room temperature.
Detection: 10 μL detection reagents were added in low light conditions containing nickel chelate acceptor beads and streptavidin donor beads (Perkin Elmer 6760002), resulting in a final concentration 20 ng/ml. Plates were incubated 1 hour and read on a PerkinElmerTM Envision™ plate reader (680 nm excitation and […] settings). The IC50 of each compound was determined by calculating percent inhibition from no drug and no protein controls, and the Ki of each compound was calculated using the Cheng-Prusoff transformation. From the IC50 values were determined. The IC50 values are reported in Table 2 in the CRBN IC50 (nM) column.
A general note: Bead proximity is the source of the signal in Alpha formats.

The IC50 is the midpoint of a concentration-inhibition curve.

For the molecule `C[C@@H](NC(=O)c1nc(C(C)(C)C)no1)c1ccc(-c2cc(Nc3ccc(N4CCN(CCc5ccc(N6CCC(=O)NC6=O)cc5)C[C@@H]4C)cn3)ncn2)cc1Cl` [Example 14, 3-tert-butyl-N-[(1R)-1-{2-chloro-4-[6-({5-[(2S)-4-{2-[4-(2,4-dioxo-1,3-diazinan-1-yl)phenyl]ethyl}-2-methylpiperazin-1-yl]pyridin-2-yl}amino)pyrimidin-4-yl]phenyl}ethyl]-1,2,4-oxadiazole-5-carboxamide], the results for the IC50 in experiment [1] and in experiment [2] were 0.053 nM and 2330 nM, respectively.

For the molecule `Cc1cc(-c2cc(Nc3ccc(N4CCN(CCc5ccc(N6CCC(=O)NC6=O)cc5)C[C@@H]4C)cc3)ncn2)ccc1[C@@H](C)NC(=O)c1nc(C(C)(C)C)no1` [Example 18], the results for the IC50 in experiment [1] and in experiment [2] were 0.496 nM and 1250 nM, respectively.

As to `Cc1cc(-c2cc(Nc3ccc(CCN4CCN(c5ccc(N6CCC(=O)NC6=O)cc5)CC4)cn3)ncn2)ccc1[C@@H](C)NC(=O)c1nc(C(C)(C)C)no1` [Example 19], the results for the IC50 in experiment [1] and in experiment [2] were 0.1 nM and no less than 10000 nM, respectively.

The values above are taken from patent US20240109877A1, “PYRIMIDINES FOR DEGRADING BRUTON'S TYROSINE KINASE” (AbbVie Inc., priority 2022, published 2024).
